Measured values as given in patent US10835507B2, “Treatment of muscular disorders with combinations of RXR agonists and thyroid hormones” (Io Therapeutics, Inc., priority 2016, dated 2020).
Entries after “also recorded” stand apart in the source; their conditions may differ.

What was measured:
[1] = tested on: mouse oligodendrocyte progenitor cells (OPCs); test: Mouse oligodendrocyte progenitor cell differentiation, 5-day treatment, Example 5; assay type: cell-based; conditions: 96-well plates, plp-EGFP mouse OPCs
Method: OPCs were derived from plp-EGFP expressing mice.
Therapeutic agents were tested in 96-well plates (6 wells per concentration). […] All media contained 0.1% DMSO. At the end of the 5-day treatment, cells were imaged on Cellomics in two channels and algorithms were used to count nuclei and EGFP+ oligodendrocytes.

[2] = tested on: spontaneously hypertensive rats (SHRs); test: Cardiac hypertrophy in spontaneously hypertensive rats; assay type: in vivo, rat; conditions: present-tense example; for inhibition of the increase in cardiac mass and wall thickness: SHRs at 12 weeks of age, 10 mg to 100 mg/kg
Method: Four weeks old SHRs and control rats are randomized and put into groups of 5-10 rats/group. […] Transthoratic echocardiographs are performed to determine cardiac weights and measurements.
The animals are sacrificed at 16 weeks of age to determine cardiac hypertrophy. Hypertrophy is determined by the animal's left ventricle weight to body weight ratio. The myocyte cross-sectional area is also determined. Approximately 10 mg to about 30 mg of the animal's left ventricle is homogenized and subject to sodium dodecyl sulfate polyacrylamide gel electrophoresis (SDS-PAGE) and immunoblot analysis.

RXRα = biological target: T1, RXRα (Homo sapiens, UniProt P19793); conditions: RXR receptors vs RAR receptors
T1 sequence (P19793 1-462): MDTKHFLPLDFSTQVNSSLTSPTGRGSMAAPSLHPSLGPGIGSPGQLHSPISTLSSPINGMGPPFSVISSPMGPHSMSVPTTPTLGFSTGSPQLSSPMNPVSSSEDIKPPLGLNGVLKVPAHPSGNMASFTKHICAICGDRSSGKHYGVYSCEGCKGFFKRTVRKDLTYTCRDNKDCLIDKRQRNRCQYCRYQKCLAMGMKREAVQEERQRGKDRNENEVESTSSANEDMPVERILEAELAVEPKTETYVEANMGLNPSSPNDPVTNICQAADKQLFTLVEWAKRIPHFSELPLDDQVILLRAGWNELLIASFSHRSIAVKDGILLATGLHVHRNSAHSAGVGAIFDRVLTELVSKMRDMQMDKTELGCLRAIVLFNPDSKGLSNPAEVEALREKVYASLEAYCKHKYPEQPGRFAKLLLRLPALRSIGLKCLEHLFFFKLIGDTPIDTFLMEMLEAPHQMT
Method: To determine whether a RXR agonist can mediate its effects via RXRα receptor homodimers, RXRβ receptor homodimers, RXRγ receptor homodimers, or any combination thereof, or the corresponding RAR/RXR heterodimers, receptor-mediated transactivation assays were performed. For transactivation assays assessing RXR homodimer signaling, CV-1 cells were transfected with 1) an expression construct including a full length RXRα, RXRβ, or RXRγ; and 2) a rCRBPII/RXRE-tk-Luc reporter construct that included RXR homodimer-specific RXRE/DR1 responsive element linked to a luciferase gene. For transactivation assays assessing RAR/RXR heterodimer signaling, CV-1 cells were transfected with 1) an expression construct comprising a fusion protein including an estrogen receptor (ER) DNA binding domain linked to the ligand binding domain of RARα, RARβ, or RARγ and 2) a ERE-tk-Luc reporter construct that included an estrogen receptor responsive element linked to a luciferase gene. […] Data are mean values±SE from five independent experiments.

[3] = Terminal T4 levels, mortality and body weight in the demyelination study, Example 7; conditions: 6 weeks treatment during CR
From the text: (§1) Animals (8 week-old male C57BL/6J mice) were subjected to cuprizone diet plus rapamycin injections (CR) for 6 weeks to induce demyelination. […] All animals were sacrificed after 6 weeks of CR to evaluate axonal integrity and microglial/macrophage activity in the white matter (corpus callosum, CC).
A total of 50 animals were included in the study, where 43 animals received CR demyelination for 6 weeks. During demyelination, a subset (n=7) of animals were kept on normal diet to serve as naïve age-matched controls.

[4] = tested on: mouse model of non-immune mediated demyelination; test: 6-week cuprizone plus rapamycin demyelination model, corpus callosum histology, Example 7; assay type: in vivo, C57BL/6J mice; conditions: IRX4204 10 mg/kg PO, T4 20 ng/g SQ, daily for 6 weeks during CR
From the text: as §1
The floating brain sections were immunostained with SMI-32 to visualize and quantify axonal ovoids in the CC.
The floating brain sections were immunostained with lba-1 to visualize and quantify microglia/macrophages in CC.

[5] = tested on: murine skeletal muscle myoblasts and primary myoblasts; test: Myoblast differentiation; assay type: cell-based; conditions: about 10 nM to about 1 μM; present-tense example
Method: In order to determine and compare the efficacy of IRX4204 and IRX4204+thyroxine in myoblast differentiation, murine skeletal muscle myoblasts and primary myoblasts are cultured. Myogenic differentiation is initiated when cells are approximately 60-80% confluent, with the cells being differentiated into cell types, such as myotubes.

[6] = tested on: embryonic stem cells (ES); test: Myogenic conversion of embryonic stem cells (embryoid bodies); assay type: cell-based; conditions: embryoid bodies without DMSO, approximately 1 nM to about 1 μM; present-tense example
From the text: To test the potency of RXRs on myogenic conversion of embryonic stem cells (ES), embryoid bodies are formed without DMSO. […] Myoblasts are examined through microscopy and the number of myocytes counted.

Pluripotent P19 cells = test: Myogenic differentiation of pluripotent P19 cells; assay type: cell-based; conditions: approximately 1 nM to about 1 μM, 1% DMSO; present-tense example
Method: Cells fixed to cover slips are then incubated with primary antibodies for skeletal muscle markers and then labeled with secondary antibodies. Microscopy analysis is performed and the number of skeletal myocytes quantified.

[7] = tested on: oligodendrocyte precursor cells (OPCs); test: Oligodendrocyte precursor cell differentiation (EGFP expression), Example 4; assay type: cell-based, mouse
From the text: OPCs were generated from a neurosphere culture of E14.5 PLP-EGFP (on C57BL/6J background) mouse brains. […] The EGFP expressing cells were quantified with Cellomics Neuronal Profiling Algorithm.
The EGFP expressing cells in controls and all compounds were quantified with Cellomics Neuronal Profiling Algorithm.

| Structure (SMILES) | production of EGFP+ oligodendrocytes [1] | inhibition of the increase in cardiac mass and wall thickness [2] | RXRα expression in cardiac muscle tissue (immunoblot) ([2]; SHRs at 16 weeks of age) | inhibition of cardiomyocyte cross-sectional area increases ([2]; SHRs at 16 weeks of age) | potency in activating RXR receptors rather than RAR receptors (RXRα) | terminal body weights vs vehicle group [3] | Iba1 staining (microglia/macrophages) in CC compared to vehicle [4] | number of SMI32 stained axonal ovoids in CC compared to Vehicle [4] | myoblast differentiation (numbers of microfibers, differentiated cells) [5] | potency at increasing myogenic differentiation (number of myocytes) [6] | number of myogenically differentiated cells (skeletal myocytes) (Pluripotent P19 cells) | total cell number and pyknotic cells compared to controls ([7]; OPC culture) | OPC differentiation into oligodendrocytes (EGFP positive cells) compared to negative control (DMSO) ([7]; OPCs from E14.5 PLP-EGFP mouse brains) | ratio of left ventricle weight to body weight ([2]; SHRs at 16 weeks of age) |
| --- | --- | --- | --- | --- | --- | --- | --- | --- | --- | --- | --- | --- | --- | --- |
| N[C@@H](Cc1cc(I)c(Oc2ccc(O)c(I)c2)c(I)c1)C(=O)O [Compound T3, triiodothyronine, reference compound] | clear dose-responses in oligodendrocyte production |  |  |  |  |  |  |  |  |  |  |  |  |  |
| CC(/C=C/[C@@H]1C[C@]1(C)c1ccc2c(c1)C(C)(C)CCC2(C)C)=C\C(=O)O [IRX4204, 3,7-dimethyl-6(S),7(S)-methano,7-[1,1,4,4-tetramethyl-1,2,3,4-tetrahydronaphth-7-yl]2(E),4(E) heptadienoic acid] | clear dose-responses in oligodendrocyte production | greater inhibition of the increase in cardiac mass and wall thickness as compared to bexarotene-treated animals | up-regulated more | greater inhibition of cardiomyocyte cross-sectional area increases than treatment with bexarotene | > 1,000 fold | no significant difference | no difference | trend towards decreased number of axonal ovoids but was not statistically different from the Vehicle | increased numbers of microfibers as compared to cells treated with thyroxine or vehicle alone | more potent at increasing differentiation than treatment with retinoic acid, bexarotene, or vehicle alone | higher number of myogenically differentiated cells as compared to cells treated with retinoic acid, bexarotene, or vehicle alone | did not show any differences | significant increase in OPC differentiation into oligodendrocytes; also recorded: dose dependent increase in the number of the EGFP positive cells |  |
| C=C(c1ccc(C(=O)O)cc1)c1cc2c(cc1C)C(C)(C)CCC2(C)C [bexarotene, 4-[1-(3,5,5,8,8-pentamethyl-6,7-dihydronaphthalen-2-yl)ethenyl]benzoic acid, reference compound] |  | inhibition of the increase in cardiac mass and wall thickness as compared to vehicle-only treated SHRs |  |  |  |  |  |  |  |  |  |  |  | significantly lower ratio of left ventricle weight to body weight as compared to vehicle-only treated SHRs |
